Results on two compounds are retold here after patent publication US20120172598A1, “COMPOUNDS HAVING TAFIa INHIBITORY ACTIVITY” (TAISHO PHARMACEUTICAL CO., LTD., priority 2009, published 2012).

The term IC50 denotes the concentration that inhibits the measured activity by half.

This assay concerns the target T1, TAFIa (Homo sapiens, UniProt Q96IY4).
T1 construct: purchased Enzyme Research Laboratories
T1 sequence (Q96IY4 115-423): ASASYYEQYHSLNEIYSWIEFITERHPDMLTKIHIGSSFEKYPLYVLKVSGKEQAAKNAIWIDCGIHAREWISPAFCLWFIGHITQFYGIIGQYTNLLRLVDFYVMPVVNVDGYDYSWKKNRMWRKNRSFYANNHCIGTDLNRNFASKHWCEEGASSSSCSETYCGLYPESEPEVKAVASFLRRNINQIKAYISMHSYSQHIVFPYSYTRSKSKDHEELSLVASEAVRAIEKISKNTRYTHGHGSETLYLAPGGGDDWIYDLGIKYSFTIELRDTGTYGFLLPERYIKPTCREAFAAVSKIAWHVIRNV
Kind of assay: TAFIa inhibition test (Hip-Arg substrate, absorbance at 405 nm). The assay is classed as biochemical. The conditions noted are these: TAFI activated with thrombin/thrombomodulin, 40 minutes at room temperature, read-out: TAFIa inhibitory activity IC50. Here is the method: Test 1 [TAFIa Inhibition Test]
Compounds of the present invention were measured for their TAFIa inhibitory activity as follows based on the method described in Thromb. Haemost. 79, 371-377 (1998).
(a) Preparation of TAFIa Solution
To 450 μl of TAFI (the product of Enzyme Research Laboratories whose concentration was adjusted to 18 μg/ml with buffer A: 100 mM Tris-HCl, pH 7.4), 45 μl of a thrombomodulin solution (a rabbit lung derived thrombomodulin produced by American Diagnostica whose concentration was adjusted to 1 μg/ml with buffer B: 50 mM Tris-HCl, pH 7.5, containing 0.15 M NaCl) and 45 μl of a thrombin solution (a freeze-dried human plasma derived thrombin produced by Sigma and dissolved in water to have a concentration of 30 μU/ml) were added and the mixture was left to stand at room temperature for 25 minutes.
(b) Method of Measuring TAFIa Inhibitory Activity […]
Subsequently, a color former (1% cyanuric chloride in 1,4-dioxane) was added in an amount of 50 μl to each well and the plate was left to stand for 3 minutes at room temperature, then absorbance at 405 nm was measured with a microplate reader (Spectramax M2 of Molecular Devices). […]
For two compounds of the present invention, the above test was conducted and on the basis of the results of measurements, TAFIa inhibitory activity was calculated to give the results shown in Table 2.

The structures appear in SMILES notation. Where a name gives a salt, the structure may show the parent alone.

Take `N[C@H]1CCN([C@@H](Cc2ncn3c2CCc2ccccc2-3)C(=O)O)C1` [Compound 1, (2S)-2-[(3S)-3-aminopyrrolidin-1-yl]-3-(4,5-dihydroimidazo[1,5-a]quinolin-3-yl)propanoic acid trihydrochloride]: the half-inhibitory concentration (IC50) is 36 nM.
`Cc1ccc2c(c1)CCc1c(C[C@@H](C(=O)O)N3CC[C@H](N)C3)ncn1-2` [Compound 2, (2S)-2-[(3S)-3-aminopyrrolidin-1-yl]-3-(7-methyl-4,5-dihydroimidazo[1,5-a]quinolin-3-yl)propanoic acid trihydrochloride]: the IC50 came out at 23 nM.
